Data on seven compounds can be found in patent publication US9499462B2, “Isolated compounds from turmeric oil and methods of use” (Cognition Therapeutics, Inc., priority 2011, dated 2016).

Entries after “also recorded” stand apart in the source; their conditions may differ.

The test system of series [1] is 9 month old male Swe/Ldn mice. Nature of the series: Behavioral efficacy in transgenic Swe/Ldn mice (osmotic minipump). The format is in vivo. Conditions: transgenic mouse model of AD. The protocol: CT0093 was tested for its ability to reverse deficits in 9 month old male Swe/Ldn mice in a pilot study at 1 and 10 mg/kg/day via the osmotic minipump method.
Subcutaneous administration of 10 mg/kg/day of CT0093 (shown in gray squares and solid gray line and solid bar) achieved brain concentrations of 540 nM (FIG. 9).

Series [2] has as its system Abeta oligomer effects on memory. Nature of the series: Fear conditioning assay (contextual memory, Abeta oligomer administration). The format is in vivo, mice. The method, then:
CT0109 and CT0093 were tested in an animal model of a memory-dependent behavioral task known as fear conditioning. The study protocol was designed based on published protocols (See e.g. Puzzo D, Privitera L, Leznik E, Fa M, Staniszewski A, Palmeri A, Arancio O. Picomolar amyloid-beta positively modulates synaptic plasticity and memory in hippocampus. J Neurosci. 2008 Dec. 31; 28(53):14537-45.). The formation of contextual memories is dependent upon the integrity of medial temporal lobe structures such as the hippocampus. In this assay mice were trained to remember that a particular salient context (conditioned stimulus; CS) is associated with an aversive event, in this case a mild foot shock (the unconditioned stimulus, US). Animals that show good learning will express an increase in freezing behavior when placed back into the same context. This freezing is absent in a novel context. Increased freezing in the context indicates strong hippocampal-dependent memory formation in animals. Memory tested in Fear Conditioning is sensitive to elevations of soluble Aβ. […] The fear condition model for memory was performed as described herein.

For series [3], the system named is Abeta oligomer-induced acceleration of exocytosis (membrane trafficking) in primary neurons. Nature of the series: Exocytosis / MTT membrane trafficking assay in mature primary neurons treated with Abeta oligomers. The format is cell-based, Sprague-Dawley rat. Conditions: for block of Abeta oligomer effects on membrane trafficking (in words): primary neurons in vitro; for efficacy relative to the parent CT0093 (in words) / potency relative to the parent CT0093 (in words): 21DIV primary neurons. The method, then: Primary neurons from E18 Sprague-Dawley rat embryos are plated at optimized concentrations in 384 well plates in NB media (Invitrogen). Neurons are maintained in cultures for 3 weeks, with twice weekly feeding of NB media with N2 supplement (Invitrogen). A test compound is added to cells, followed by addition of Vehicle or Abeta oligomer preparations (1.5 μM), and incubated for 1 to 24 hr. at 37° C. in 5% CO2. MTT reagent (3-(4,5-dimethylthizaol-2-yl)-2,5diphenyl tetrazolium bromide) (Roche Molecular Biochemicals) is reconstituted in phosphate buffered saline to 5 mg/mL. 10 μL of MTT labeling reagent is added to each well and incubated at 37° C. for 1 h, then imaged.
Each assay plate is formatted so that compounds are tested with and without Abeta on each plate.
Similar procedures for exocytosis assays/MTT assays can be found in the literature. See e.g., Liu Y, et. al., Detecting bioactive amyloid beta peptide species in Alzheimer's disease. J. Neurochem. 2004 November; 91(3):648-56; Liu Y, and Schubert D. “Cytotoxic amyloid peptides inhibit cellular 3-(4,5-dimethylthiazol-2-yl)-2,5-diphenyltetrazolium bromide (MTT) reduction by enhancing MTT formazan exocytosis.” J. Neurochem. 1997 December; 69(6):2285-93; and Liu Y, and Schubert D. “Treating Alzheimer's disease by inactivating bioactive amyloid beta peptide” Curr. Alzheimer Res. 2006 April; 3(2):129-35. Abeta 1-42 oligomers made according to published methods [See e.g. Dahlgren et al., “Oligomeric and fibrillar species of amyloid-beta peptides differentially affect neuronal viability” J Biol. Chem. 2002 Aug. 30; 277(35):32046-53. Epub 2002 Jun. 10. LeVine H 3rd. “Alzheimer's beta-peptide oligomer formation at physiologic concentrations” Anal Biochem. 2004 Dec. 1; 335(1):81-90; Shrestha et. al, “Amyloid beta peptide adversely affects spine number and motility in hippocampal neurons” Mol Cell Neurosci. 2006 November; 33(3):274-82. Epub 2006 Sep. 8; Puzzo et al., “Amyloid-beta peptide inhibits activation of the nitric oxide/cGMP/cAMP-responsive element-binding protein pathway during hippocampal synaptic plasticity” J. Neurosci. 2005 Jul. 20; 25(29):6887-97; Barghorn et al., “Globular amyloid beta-peptide oligomer—a homogenous and stable neuropathological protein in Alzheimer's disease” J. Neurochem. 2005 November; 95(3):834-47. Epub 2005 Aug. 31; Johansson et al., Physiochemical characterization of the Alzheimer's disease-related peptides A beta 1-42 Arctic and A beta 1-42 wt. […] Negative controls include vehicle-treated neurons as well as neurons treated with 28 μM concentrations of memantine. […] These controls, on each plate, serve as normalization tools to calibrate assay performance on a plate-by-plate basis.
Primary neuronal cultures are prepared as follows: Optimal cell density of primary neuronal cultures is determined based on cellular response to Abeta oligomers using the exocytosis assay as a readout, and immunohistochemical analysis of the relative proportion of glia to neurons in the cultures. Cultures are monitored on a weekly basis with immunohistochemistry and image processing-based quantification to monitor the percentage of the cultures that are neurons vs. glia (Glial cells). Cultures containing more than 20% glia (positive for GFAP) vs. neurons (staining positively with antibodies directed against MAP2) at the screening age of 21 days in vitro (21 DIV) are rejected.
Toxicity is monitored in each image-based assay via quantification of nuclear morphology visualized with the DNA binding dye DAPI (Invitrogen). Nuclei that are fragmented are considered to be in late stage apoptosis (Majno and Joris '95). Peptide lots producing unusual peptide size ranges or significant toxicity at a standard 1.5 uM concentration on neurons are rejected.

The subject of series [4] is Abeta oligomer-induced synapse loss. Nature of the series: Abeta oligomer-induced synapse loss in vitro. The format is cell-based.
Series [5] is described as follows: in vivo. Particulars: rat, 1 mg/kg.
Experimental: PK studies are performed at CEREP Inc. of Redmond Wash., according to their standard protocols: The plasma samples were processed using acetonitrile precipitation and analyzed by HPLC-MS or HPLC-MS/MS. Peak areas were recorded, and the concentrations of the test compound in the unknown plasma samples were determined using the respective calibration curve. The reportable linear range of the assay was determined, along with the lower limit of quantitation (LLQ).
Pharmacokinetic studies were performed according to the following protocols: The plasma samples were processed using acetonitrile precipitation and analyzed by HPLC-MS or HPLC-MS/MS. Peak areas were recorded, and the concentrations of the test compound in the unknown plasma samples were determined using the respective calibration curve. The reportable linear range of the assay was determined, along with the lower limit of quantitation (LLQ).

In the case of `COc1cc(CCC(C)NCc2ccc(C(F)(F)F)cc2)ccc1O` (stereo not drawn) [CT0109, 4-(3-(4-(trifluoromethyl)benzylamino)butyl)-2-methoxyphenol], in series [1], the “improvement of memory / cognitive performance of transgenic mice” value is listed as “capable of improving cognitive performance in the transgenic model of AD; also recorded: improve memory deficits in a transgenic mouse model of Alzheimer's disease”. For the same compound, in series [2] (2 pmol dose, given prior to Abeta oligomers (200 nM), mice), the “block of Abeta oligomer effects on memory” value was “blocked oligomer effects on memory; also recorded: completely blocked the effect of Abeta on memory”. Further, the adverse behavioral changes entry in series [2] (any dose) is reported as “No adverse behavioral changes were observed”. The “effect of compound alone on memory” value in series [2] (without Abeta) is “No effect of compound alone was observed”. The EC50 in series [3] (Rattus norvegicus, Primary neuron, MTT assay, primary neurons, read-out: EC50, block of Abeta oligomer-induced acceleration of exocytosis / oligomer effects on membrane trafficking) was found to be 7 µM. Also, the “block of Abeta oligomer effects on membrane trafficking (in words)” value (from here on “block of Abeta oligomer effects … (in words)”) in series [3] is reported as “effective in both prevention; also recorded: effective at stopping Abeta oligomer mediated effects on membrane trafficking”. Moreover, the “pharmacological competition with Abeta oligomers” value in series [3] (synthetic and human Alzheimer's patient-derived oligomers) was “exhibit pharmacological competition with both synthetic (A, B) and human Alzheimer's patient-derived (C, D) oligomers”. For the same compound, the “block of Abeta oligomer-induced synapse loss” value in series [4] was “inhibition of processed product of amyloid precursor protein-mediated synapse loss”.

Consider `C[N+](C)(C)CCCCCC[N+](C)(C)C` [hexamethonium bromide, reference compound], for which the “block of Abeta oligomer effects … (in words)” value in series [3] is given as “none were active”.

As to `C[C@]12N[C@H](Cc3ccccc31)c1ccccc12` [MK-801, reference compound], the “block of Abeta oligomer effects … (in words)” value in series [3] was “none were active”.

In series [5], `CC1=CC=C(C(C)CC(CC(C)(C)O)NCC(C)C)CC1` (stereo not drawn) [CT1296, 4-(isobutylamino)-2-methyl-6-(4-methylcyclohexa-1,3-dienyl)heptan-2-ol] had a clearance of 120 ± 13 mL/min/kg and a half-life of 1.15 ± 0.0833 h. Moreover, in series [3], the “efficacy relative to the parent CT0093 (in words)” value is on record as “somewhat less efficacious” and the “potency relative to the parent CT0093 (in words)” value is “maintained the potency of the parent compound”. In series [3] (listed as CT01296), the “efficacy relative to the parent CT0093 (in words)” value is “slightly less efficacious”.

In series [5], `Cc1ccc(C(C)CC(CC(C)(C)O)NCC(C)C)cc1` (stereo not drawn) [CT1297, 4-(isobutylamino)-2-methyl-6-p-tolylheptan-2-ol] had a clearance of 101 ± 12 mL/min/kg and a half-life of 2.68 ± 1.62 h. The “potency relative to the parent CT0093 (in words)” value in series [3] was “significantly less potent than the parent CT0093”. Further, the “fold less potent than the parent CT0093” value in series [3] (primary screening assay) is approximately 2 fold.

In the case of `O[C@H]1[C@H](O)[C@@H](O)[C@H](O)[C@@H](O)[C@@H]1O` [scyllo-inositol (AZD-103), scyllo-inositol, reference compound], the “block of Abeta oligomer effects … (in words)” value in series [3] is reported as “none were active”.

`CC12CC3CC(C)(C1)CC(N)(C3)C2` [memantine, reference compound]: the inhibition at 28 µM in series [3] (Rattus norvegicus, Primary neuron, 28 μM memantine, plate control, read-out: inhibition of oligomer effects) stood at 50%.
